≈ marks a conversion by molar mass, not a printed value. Records with an inconclusive call do not appear. Calls of active or inactive are those of the source. How the calls were made is not given here.
tested on: M. tuberculosis H37Rv growth inhibition; assay: Mycobacterium tuberculosis H37Rv growth inhibition, cell based, confirmatory dose response (AID 1949);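 further: bacteria grown 7 days with compound before Alamar blue readout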

Cc1cccc(OCC(O)CN2CCN(CCN3C(=O)c4cccc5cccc(c45)C3=O)CC2)c1C (stereo not drawn) and O=C(c1ccc(Cl)cc1)c1ccc(OCC(O)CN2CCN(Cc3ccccc3)CC2)cc1 (stereo not drawn) are within 1.5-fold of each other in IC50: 2.53 µg/mL (≈ 5.19 µM) for the first, 2.75 µg/mL (≈ 5.91 µM) for the second.

First: Cc1ccc(NC(=O)C(C)NS(=O)(=O)c2ccc(Cl)cc2)cc1Cl (stereo not drawn)
Second: Cc1ccc(SC(C)C(=O)Nc2ccc(Cl)c(Cl)c2)cc1 (stereo not drawn)
The IC50 of the first is 4.3-fold lower: 2.85 µg/mL (≈ 7.36 µM) for the first, 12.3 µg/mL (≈ 36.1 µM) for the second.

COc1ccc(-c2nnc(SCC(=O)NCCc3ccccc3)o2)cc1 and COC(=O)CSc1nnc(-c2ccc(Cl)cc2)o1 cannot be ordered by IC50: under 0.1 µg/mL for the first, under 0.1 µg/mL for the second.

Going from CCC(C)c1ccc(O)c(NC(=S)NC(=O)c2ccc(-c3ccc(Cl)cc3)o2)c1 (stereo not drawn) to COc1cc([N+](=O)[O-])ccc1NC(=O)c1cc(Cl)ccc1O, the IC50 rises from under 0.1 µg/mL to 0.12 µg/mL (≈ 0.372 µM).

Going from CC(Sc1nnc(N)s1)C(=O)Nc1nc2c(s1)CCCC2 (stereo not drawn) to O=C(Nc1ccc2c(c1)CCC2)c1ccc(Br)s1, the IC50 rises from 0.75 µg/mL (≈ 2.2 µM) to 1.45 µg/mL (≈ 4.5 µM) (1.9-fold).

CCN(CC)c1ccc(NC(=O)c2cnccn2)cc1 and CCN(CC)c1cccc(Oc2nc([N+](=O)[O-])nn2C)c1 are within 1.5-fold of each other in IC50: 2.37 µg/mL (≈ 8.77 µM) for the first, 1.81 µg/mL (≈ 6.21 µM) for the second.

Cc1ccc(C(=O)Nc2cc(C#N)c3[nH]c4ccccc4n3c2=O)cc1 and N#CSc1ccc(NC(=O)CSc2nc3ccccc3[nH]2)cc1 are within 1.5-fold of each other in IC50: 6.55 µg/mL (≈ 19.1 µM) for the first, 6.24 µg/mL (≈ 18.3 µM) for the second.

Going from COc1cc(C(=O)Oc2ccc(Cl)c3cccnc23)cc(OC)c1OC to COC(=O)COc1ccc2cc(-c3ccc(OC)c(OC)c3)c(=O)oc2c1, the IC50 falls from 11.3 µg/mL (≈ 30.2 µM) to 1.03 µg/mL (≈ 2.78 µM) (11-fold).

First: CCOc1ccccc1NC(=O)COc1ccc(C(C)C)cc1
Second: CCOc1ccc(NCCC(=O)c2cccs2)cc1
The IC50 of the first is 5.8-fold higher: 5.01 µg/mL (≈ 16 µM) for the first, 0.86 µg/mL (≈ 3.12 µM) for the second.

First: COc1ccccc1OCCCCN1CCN(C(c2ccccc2)c2ccccc2)CC1
Second: COc1ccccc1OC(=O)c1sc2ccccc2c1Cl
The IC50 of the first is 5.9-fold higher: 8.02 µg/mL (≈ 18.6 µM) for the first, 1.37 µg/mL (≈ 4.3 µM) for the second.

First: CCOC(=O)COc1ccc2c(=O)c(Oc3ccc(F)cc3)c(C)oc2c1
Second: Cc1oc2ccc(OC(=O)c3ccc(F)cc3)cc2c1C(=O)OC(C)C
The IC50 of the first is 1.6-fold lower: 1.51 µg/mL (≈ 4.06 µM) for the first, 2.4 µg/mL (≈ 6.73 µM) for the second.

Going from CC(NC(=O)Nc1cccc(C(F)(F)F)c1)C1CC2CCC1C2 (stereo not drawn) to COc1ccc(Nc2sc(C(=O)C34CC5CC(CC(C5)C3)C4)c(N)c2C#N)cc1, the IC50 rises from under 0.1 µg/mL to 12.1 µg/mL (≈ 29.6 µM).

Compared with CC(=O)C1=C(C)NC(SCC(=O)Nc2nc3ccccc3s2)=C(C#N)C1c1ccc(Cl)cc1 (stereo not drawn), O=C(CSc1n[nH]c(-c2ccc(Cl)cc2)n1)Nc1ccc(F)c(Cl)c1 is 9.5-fold higher in IC50: 4.1 µg/mL (≈ 8.28 µM) for the first, 39 µg/mL (≈ 98.2 µM) for the second.

First: CC1(C)Oc2ccc3ccc(=O)oc3c2C(C=O)=C1Cl
Second: CCOC(=O)Cc1c(C)nc2c(-c3ccc(Cl)cc3)c[nH]n2c1=O
The IC50 of the first is 1.9-fold lower: 1.03 µg/mL (≈ 3.54 µM) for the first, 1.95 µg/mL (≈ 5.64 µM) for the second.

Going from C1=C(c2ccc(Oc3ccccc3)cc2)N2CCN=C2S1 to c1ccc2cc(OCCCn3ccnc3)ccc2c1, the IC50 rises from 5.23 µg/mL (≈ 17.8 µM) to 10.3 µg/mL (≈ 40.9 µM) (2-fold).

Cc1cccc(COc2ccc(/C=C/[N+](=O)[O-])cc2)c1 and COc1cc(/C=C/[N+](=O)[O-])ccc1OC(=O)c1ccco1 are within 1.5-fold of each other in IC50: 21.4 µg/mL (≈ 79.5 µM) for the first, 22.6 µg/mL (≈ 78.1 µM) for the second.

First: CSc1nsc(SCC(=O)c2ccccc2)n1
Second: Cc1cccnc1Nc1nc(-c2ccccn2)cs1
The IC50 of the first is higher: 4.45 µg/mL (≈ 15.8 µM) for the first, under 0.1 µg/mL for the second.

Going from COC(=O)c1ccc(/C=C/C(=O)c2cccs2)cc1 to CCOC(=O)COc1ccc(C(=O)NC2CCCCC2)cc1, the IC50 falls from 29.1 µg/mL (≈ 107 µM) to 1.09 µg/mL (≈ 3.57 µM) (27-fold).

First: COc1ccc(OC(C)C(=O)Nc2ccc(I)cc2)cc1 (stereo not drawn)
Second: O=C(Nc1ccccc1OC(F)F)c1ccc([N+](=O)[O-])o1
The IC50 of the first is 20-fold lower: 0.32 µg/mL (≈ 0.806 µM) for the first, 6.29 µg/mL (≈ 21.1 µM) for the second.

Going from CCN(CC)CCn1c(=N)n(CC(O)COc2ccc(Cl)cc2Cl)c2ccccc21 (stereo not drawn) to CCN(CC)CCn1nc2c3c(cccc3c1=O)-c1ccccc1-2, the IC50 rises from 1.38 µg/mL (≈ 3.06 µM) to 5.48 µg/mL (≈ 17.2 µM) (4-fold).

Going from CC(NCC(O)COc1ccccc1C(C)(C)C)c1ccccc1 (stereo not drawn) to Cc1cc(Br)c2[nH]c(O)c(N=NC(=O)COc3ccccc3C)c2c1, the IC50 rises from 2.55 µg/mL (≈ 7.79 µM) to 18.7 µg/mL (≈ 46.4 µM) (7.3-fold).

Going from O=[N+]([O-])c1ccc(O)c(-c2nc(-c3cccs3)c(-c3cccs3)[nH]2)c1 to Oc1ccc(Br)cc1-c1nc(-c2cccs2)c(-c2cccs2)[nH]1, the IC50 falls from 97 µg/mL (≈ 263 µM) to 1.55 µg/mL (≈ 3.84 µM) (63-fold).

Going from CCCNc1nc(Nc2ccc(C)cc2)nc(N2CCOCC2)n1 to Cc1nc(N2CCN(Cc3ccc4c(c3)OCO4)CC2)nc2c1C(=O)CC(c1ccco1)C2 (stereo not drawn), the IC50 falls from 7.71 µg/mL (≈ 23.5 µM) to 5.06 µg/mL (≈ 11.3 µM) (1.5-fold).

Compared with Cc1ccc(C2CC(c3cc(Br)ccc3O)=NN2)cc1 (stereo not drawn), C=CCn1c(Sc2ccc(C(F)(F)F)cc2[N+](=O)[O-])nnc1-c1ccccc1Cl is 18-fold lower in IC50: 3.46 µg/mL (≈ 10.4 µM) for the first, 0.19 µg/mL (≈ 0.431 µM) for the second.

With CCC(C)(C)C1CCc2sc3ncnc(N4CCN(C)CC4)c3c2C1 (stereo not drawn) the IC50 was 6.39 µg/mL (≈ 17.8 µM).

For O=C(Oc1ccccc1)c1ccc(COC(=O)c2cc3ccccc3oc2=O)cc1, the IC50 was > 50 µg/mL (inactive).
CC(=O)Oc1ccc2nc(-c3ccc(C)c(C)c3)oc(=O)c2c1 was tested, and the IC50 was > 50 µg/mL (inactive).
With COc1ccc(-c2cc(C(=O)Nc3ccc(C(=O)N4CCOCC4)cc3)c3cc(C)ccc3n2)cc1 the IC50 was > 50 µg/mL (inactive).
In the case of N#Cc1c(C(F)(F)F)cc(-c2cccnc2)nc1SCC(=O)N1CCc2ccccc2C1, the IC50 is reported as > 50 µg/mL (inactive).
With CCOC(=O)C1=CN(C(C)C)C=C(C(=O)OCC)C1c1cc(OC)ccc1OC the IC50 was > 50 µg/mL (inactive).
For CCOC(=O)c1cc(-c2ccc(/C=C/[N+](=O)[O-])o2)ccc1Cl, the IC50 was > 50 µg/mL (inactive).
In the case of Cc1ccc(C(=O)CCNc2ccc(F)cc2)cc1, the IC50 is reported as > 50 µg/mL (inactive).
O=C(NCc1ccccc1)c1cc2cc(Cl)cc(Cl)c2oc1=O was tested, and the IC50 was > 50 µg/mL (inactive).
C=CCN(CC=C)C(=S)NC(=O)c1ccc(OC)cc1 was tested, and the IC50 was > 50 µg/mL (inactive).
